Laboratory results from ChEMBL document CHEMBL1201862, “PubChem BioAssay data set” (2004).
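Each compound was tested at five concentrations against cells in 96-well plates for 48 hours. GI50: concentration for 50% inhibition of growth.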 Active and inactive are the calls of the source. Cut-off read from the data, not from the text of the source: active = GI50 up to about 1.1 µM and inactive = higher.

Experiments:
Assay in all cases: NCI tumour cell line growth inhibition, 48 h
SF-295 = tested on: SF-295
K562 = tested on: K562
Malme-3M = tested on: Malme-3M
U-251 = tested on: U-251
SR = tested on: SR
MDA-MB-231 = tested on: MDA-MB-231
HCT-15 = tested on: HCT-15
SF-268 = tested on: SF-268
MOLT-4 = tested on: MOLT-4
SK-MEL-5 = tested on: SK-MEL-5
HOP-62 = tested on: HOP-62
RXF 393 = tested on: RXF 393
M14 = tested on: M14
LOX IMVI = tested on: LOX IMVI
NCI-H460 = tested on: NCI-H460
Hs-578T = tested on: Hs-578T
COLO 205 = tested on: COLO 205
UACC-62 = tested on: UACC-62
ACHN = tested on: ACHN
HOP-92 = tested on: HOP-92
UO-31 = tested on: UO-31
SNB-19 = tested on: SNB-19
786-0 = tested on: 786-0
SNB-75 = tested on: SNB-75
HT-29 = tested on: HT-29
OVCAR-4 = tested on: OVCAR-4
SK-MEL-28 = tested on: SK-MEL-28
KM12 = tested on: KM12
EKVX = tested on: EKVX
SW-620 = tested on: SW-620
IGROV-1 = tested on: IGROV-1
MCF7 = tested on: MCF7
MDA-MB-435 = tested on: MDA-MB-435
CAKI-1 = tested on: CAKI-1
OVCAR-5 = tested on: OVCAR-5
NCI-H522 = tested on: NCI-H522
NCI/ADR-RES = tested on: NCI/ADR-RES
PC-3 = tested on: PC-3
SK-OV-3 = tested on: SK-OV-3
DU-145 = tested on: DU-145
T47D = tested on: T47D
BT-549 = tested on: BT-549
SF-539 = tested on: SF-539
NCI-H226 = tested on: NCI-H226
TK-10 = tested on: TK-10
HCT-116 = tested on: HCT-116
HL-60 = tested on: HL-60
SN12C = tested on: SN12C
SK-MEL-2 = tested on: SK-MEL-2
NCI-H23 = tested on: NCI-H23
OVCAR-3 = tested on: OVCAR-3
OVCAR-8 = tested on: OVCAR-8
A549 = tested on: A549
UACC-257 = tested on: UACC-257

Measured: GI50

COc1ccc2c(c1)[n+]([O-])c1cc(C#N)ccc1[n+]2[O-]
0.723 µM: HCT-15
inactive: K562 6.76 µM | Malme-3M 2.58 µM | U-251 3.72 µM | SR 4.08 µM | MDA-MB-231 12.5 µM | SF-268 13.3 µM | HOP-62 2.11 µM | RXF 393 47.2 µM | LOX IMVI 3.3 µM | Hs-578T 2.07 µM | UACC-62 2.94 µM | ACHN 1.69 µM | HOP-92 6.56 µM | UO-31 5.31 µM | SNB-19 7.87 µM | 786-0 13.6 µM | SNB-75 4.41 µM | HT-29 2.87 µM | OVCAR-4 12.4 µM | SK-MEL-28 12.9 µM | KM12 2.38 µM | EKVX 24 µM | SW-620 4.34 µM | IGROV-1 4.88 µM | MCF7 4.84 µM | MDA-MB-435 2.25 µM | CAKI-1 4.09 µM | OVCAR-5 15.2 µM | NCI-H522 5.62 µM | NCI/ADR-RES 15.5 µM | PC-3 2.43 µM | SK-OV-3 18.5 µM | T47D 11.7 µM | BT-549 10.2 µM | SF-539 3.41 µM | NCI-H226 3.78 µM | TK-10 3.21 µM | HCT-116 11.1 µM | HL-60 4.63 µM | SN12C 3.17 µM | SK-MEL-2 4.27 µM | OVCAR-3 5.83 µM | OVCAR-8 15.4 µM | UACC-257 3.74 µM
active: SF-295 0.767 µM | MOLT-4 0.316 µM | SK-MEL-5 0.893 µM | M14 0.33 µM | NCI-H460 0.547 µM | COLO 205 0.586 µM | DU-145 1.1 µM | NCI-H23 0.849 µM | A549 0.378 µM
